According to patent publication US10894798B2, “Substituted dihydropyrrolopyrazole derivative” (UBE INDUSTRIES, LTD., priority 2015, dated 2021):

Tests used:
[1] = tested on: cutaneous epithelioid sarcoma cell line VA-ES-BJ; test: Various human cancer cell growth inhibition test: VA-ES-BJ; type: cell-based; settings: ATPlite, read-out: GI50 value (concentration necessary for inhibiting 50% of cell growth)
Description: (§1) A breast cancer cell line BT-549 (obtained from American Type Culture Collection (ATCC)), a uterus cancer cell line C-33A (obtained from ATCC), an ovary cancer cell line PA-1 (obtained from ATCC), a large-cell lung cancer cell line NCI-H460 (obtained from ATCC), a small-cell lung cancer cell line NCI-H82 (obtained from ATCC), a kidney cancer cell line ACHN (obtained from ATCC), a pancreatic cancer cell line BxPC-3 (obtained from ATCC), a malignant melanoma cell line A375 (obtained from ATCC), a throat cancer cell line FaDu (obtained from ATCC), a medulloblastoma cell line Daoy (obtained from ATCC), a cutaneous epithelioid sarcoma cell line VA-ES-BJ (obtained from ATCC), a rhabdomyosarcoma cell line A-204 (obtained from ATCC), a prostate cancer cell line DU145 (obtained from ATCC), a bladder cancer cell line T24 (obtained from ATCC), a lymphoma cell line SR (obtained from ATCC), a neuroblastoma cell line SH-SY5Y (obtained from DS Pharma Biomedical Co., Ltd.), a liver cancer cell line HepG2 (obtained from DS Pharma Biomedical Co., Ltd.), a stomach cancer cell line HGC-27 (obtained from DS Pharma Biomedical Co., Ltd.), and a multiple myeloma cell line NCI-H929 (obtained from DS Pharma Biomedical Co., Ltd.) were used as human cancer cell lines.
(§2) Each cell line was cultured in a cell culture medium recommended by ATCC or DS Pharma Biomedical Co., Ltd. and inoculated at 0.3 to 5.0×10^3 cells/well to a 96-well plate. The cells were cultured overnight in a carbon dioxide incubator of 37° C. containing 5% carbon dioxide. The medium was replaced with a fresh medium on the next day, then replaced with a mixed solution of a DMSO solution of a test compound with varying concentrations and a culture medium (final DMSO concentration: 0.1%), and left standing in a carbon dioxide incubator (day 0). IV-361, IV-379, IV-3, IV-215, IV-299, IV-669, IV-1049, and palbociclib (for comparison) were used as test compounds. For a control group, DMSO was added instead of the DMSO solution of the test compound to a cell culture medium (final DMSO concentration: 0.1%).
(§3) After culture for a predetermined period, the ATP activity of BT-549, C-33A, PA-1, NCI-H460, NCI-H82, ACHN, BxPC-3, A375, FaDu, Daoy, VA-ES-BJ, A-204, DU145, T24, and SR was measured by using ATPlite (manufactured by PerkinElmer, Inc.). The ATP activity of SH-SY5Y, HepG2, HGC-27, and NCI-H929 was measured by using CellTiter-Glo (manufactured by Promega Corp.).
(§4) The rate of inhibition of cell growth (%) was calculated according to the expression given below. Specifically, in the case where the difference between the ATP activity before culture (day 0) and the ATP activity after culture in the test compound-administered group is the same as the difference between the ATP activity before culture (day 0) and the ATP activity after culture in the control group, the rate of inhibition of cell growth is 0%. Rate of inhibition of cell growth=(1−((ATP activity of the test compound-administered group after culture)−(ATP activity of the test compound-administered group on day 0))/((ATP activity of the control group after culture)−(ATP activity of the control group on day 0)))×100
(§5) The concentration of the test compound necessary for inhibiting 50% of cell growth (GI50 value) was calculated by using EXSUS (version 8.1.0, manufactured by CAC Exicare Corp.).

[2] = tested on: malignant melanoma cell line A375; test: Various human cancer cell growth inhibition test: A375; type: cell-based; settings: A-375, ATPlite, read-out: GI50 value (concentration necessary for inhibiting 50% of cell growth)
Description: as §1, §2, §3, §4, §5

[3] = tested on: liver cancer cell line HepG2; test: Various human cancer cell growth inhibition test: HepG2; type: cell-based; settings: CellTiter-Glo, read-out: GI50 value (concentration necessary for inhibiting 50% of cell growth)
Description: as §1, §2, §3, §4, §5

[4] = tested on: large-cell lung cancer cell line NCI-H460; test: Various human cancer cell growth inhibition test: NCI-H460; type: cell-based; settings: ATPlite, read-out: GI50 value (concentration necessary for inhibiting 50% of cell growth)
Description: as §1, §2, §3, §4, §5

[5] = tested on: kidney cancer cell line ACHN; test: Various human cancer cell growth inhibition test: ACHN; type: cell-based; settings: ATPlite, read-out: GI50 value (concentration necessary for inhibiting 50% of cell growth)
Description: as §1, §2, §3, §4, §5

[6] = tested on: stomach cancer cell line HGC-27; test: Various human cancer cell growth inhibition test: HGC-27; type: cell-based; settings: CellTiter-Glo, read-out: GI50 value (concentration necessary for inhibiting 50% of cell growth)
Description: as §1, §2, §3, §4, §5

[7] = tested on: uterus cancer cell line C-33A; test: Various human cancer cell growth inhibition test: C-33A; type: cell-based; settings: ATPlite, read-out: GI50 value (concentration necessary for inhibiting 50% of cell growth)
Description: as §1, §2, §3, §4, §5

lymphoma cell line SR = test: Various human cancer cell growth inhibition test: SR; type: cell-based; settings: ATPlite, read-out: GI50 value (concentration necessary for inhibiting 50% of cell growth)
Description: as §1, §2, §3, §4, §5

[8] = tested on: mouse imiquimod-induced psoriasis model; test: Ear thickening suppression test using mouse imiquimod-induced psoriasis model; type: in vivo; settings: topical, application of a 0.01% solution in methanol, female BALB/c mice, read-out: rate of inhibition of increase in ear thickness
Method: An imiquimod-induced psoriasis model test was carried out by modifying the method of Leslie van der Fits et al. (J. Immunol. 182, 5836 (2009)).
Female BALB/c mice (supplied by Charles River Laboratories Japan, Inc.) were used as laboratory animals. On the start day of the test, the thicknesses of the right auricles of the mice were measured with a thickness gauge (manufactured by TECLOCK Corp.). A test compound or a solvent was applied or orally administered thereto, and after a certain time, a certain amount of Beselna Cream 5% (containing 5% imiquimod, manufactured by Mochida Pharmaceutical Co., Ltd.) was applied to the insides of the right auricles. The test compound or solvent application or oral administration and the imiquimod application were carried out for a certain period, and the thicknesses of the right auricles were measured again on the final day. The thicknesses of the right auricles were compared between the solvent-administered group and the test compound group, and the rate of inhibition was calculated.

[9] = tested on: prostate cancer cell line DU145; test: Various human cancer cell growth inhibition test: DU145; type: cell-based; settings: DU 145, ATPlite, read-out: GI50 value (concentration necessary for inhibiting 50% of cell growth)
Description: as §1, §2, §3, §4, §5

| SMILES | GI50 [1] | GI50 [2] | GI50 [3] | GI50 [4] | GI50 [5] | GI50 [6] | GI50 [7] | GI50 (lymphoma cell line SR) | inhibition in vivo at 0.01 % [8] | GI50 [9] |
| --- | --- | --- | --- | --- | --- | --- | --- | --- | --- | --- |
| Cc1cccc(Cl)c1NC(=O)N1Cc2c(NC(=O)C3([Si](C)(C)C)CCC3)n[nH]c2C1(C)C [IV-215, N-(2-Chloro-6-methylphenyl)-6,6-dimethyl-3-[1-(trimethylsilyl)cyclobutanecarboxamido]-4,6-dihydropyrrolo[3,4-c]pyrazole-5 (1H)-carboxamide] | < 300 nM | < 300 nM | < 300 nM | < 300 nM | < 300 nM | < 300 nM | < 300 nM | < 300 nM | ≥ 50% | < 300 nM |
| CC1(C)c2[nH]nc(NC(=O)C3([Si](C)(C)C)CCC3)c2CN1C(=O)Nc1c(F)cccc1OC(F)F [IV-169, N-[2-(Difluoromethoxy)-6-fluorophenyl]-6,6-dimethyl-3-[1-(trimethylsilyl)cyclobutanecarboxamido]-4,6-dihydropyrrolo[3,4-c]pyrazole-5(1H)-carboxamide] |  |  |  |  |  |  |  |  | ≥ 50% |  |
| Cc1ccc(F)cc1NC(=O)N1Cc2c(NC(=O)C3([Si](C)(C)C)CCC3)n[nH]c2C1(C)C [IV-361, N-(5-Fluoro-2-methylphenyl)-6,6-dimethyl-3-[1-(trimethylsilyl)cyclobutanecarboxamido]-4,6-dihydropyrrolo[3,4-c]pyrazole-5 (1H)-carboxamide] | < 300 nM | < 300 nM | 300 to 1000 nM | < 300 nM | < 300 nM | < 300 nM | < 300 nM | < 300 nM |  | < 300 nM |
| CCc1cccc(F)c1NC(=O)N1Cc2c(NC(=O)C3([Si](C)(C)C)CCC3)n[nH]c2C1(C)C [IV-137, N-(2-Ethyl-6-fluorophenyl)-6,6-dimethyl-3-[1-(trimethylsilyl)cyclobutanecarboxamido]-4,6-dihydropyrrolo[3,4-c]pyrazole-5(1H)-carboxamide] |  |  |  |  |  |  |  |  | ≥ 50% |  |
| COc1cccc(Cl)c1NC(=O)N1Cc2c(NC(=O)C3([Si](C)(C)C)CCC3)n[nH]c2C1(C)C [IV-247, N-(2-Chloro-6-methoxyphenyl)-6,6-dimethyl-3-[1-(trimethylsilyl)cyclobutanecarboxamido]-4,6-dihydropyrrolo[3,4-c]pyrazole-5(1H)-carboxamide] |  |  |  |  |  |  |  |  | ≥ 50% |  |
| Cc1ccc(C)c(NC(=O)N2Cc3c(NC(=O)C4([Si](C)(C)C)CCC4)n[nH]c3C2(C)C)c1F [IV-669, N-(2-Fluoro-3,6-dimethylphenyl)-6,6-dimethyl-3-[1-(trimethylsilyl)cyclobutanecarboxamido]-4,6-dihydropyrrolo[3,4-c]pyrazole-5(1H)-carboxamide] | < 300 nM | < 300 nM | < 300 nM | < 300 nM | < 300 nM | < 300 nM | < 300 nM | < 300 nM |  | < 300 nM |
| CC1(C)c2[nH]nc(NC(=O)C3([Si](C)(C)C)CCC3)c2CN1C(=O)Nc1c(Cl)cccc1Cl [IV-199, N-(2,6-Dichlorophenyl)-6,6-dimethyl-3-[1-(trimethylsilyl)cyclobutanecarboxamido]-4,6-dihydropyrrolo[3,4-c]pyrazole-5(1H)-carboxamide] |  |  |  |  |  |  |  |  | ≥ 50% |  |
| CC1(C)c2[nH]nc(NC(=O)C3([Si](C)(C)C)CCC3)c2CN1C(=O)Nc1c(F)ccc2ccoc12 [IV-1049, N-(6-Fluorobenzofuran-7-yl)-6,6-dimethyl-3-[1-(trimethylsilyl)cyclobutanecarboxamido]-4,6-dihydropyrrolo[3,4-c]pyrazole-5 (1H)-carboxamide] | < 300 nM | < 300 nM | < 300 nM | < 300 nM | < 300 nM | < 300 nM | < 300 nM | < 300 nM |  | < 300 nM |
| Cc1cccc(F)c1NC(=O)N1Cc2c(NC(=O)C3([Si](C)(C)C)CCC3)n[nH]c2C1(C)C [IV-129, N-(2-Fluoro-6-methylphenyl)-6,6-dimethyl-3-[1-(trimethylsilyl)cyclobutanecarboxamido]-4,6-dihydropyrrolo[3,4-c]pyrazole-5 (1H)-carboxamide] |  |  |  |  |  |  |  |  | ≥ 50% |  |
| Cc1ccc(C)c(NC(=O)N2Cc3c(NC(=O)C4([Si](C)(C)C)CCC4)n[nH]c3C2(C)C)c1 [IV-379, N-(2,5-Dimethylphenyl)-6,6-dimethyl-3-[1-(trimethylsilyl)cyclobutanecarboxamido]-4,6-dihydropyrrolo[3,4-c]pyrazole-5(1H)-carboxamide] | < 300 nM | < 300 nM | < 300 nM | < 300 nM | < 300 nM | < 300 nM | < 300 nM | < 300 nM |  | < 300 nM |
| CCc1cccc(C)c1NC(=O)N1Cc2c(NC(=O)C3([Si](C)(C)C)CCC3)n[nH]c2C1(C)C [IV-389, N-(2-Ethyl-6-methylphenyl)-6,6-dimethyl-3-[1-(trimethylsilyl)cyclobutanecarboxamido]-4,6-dihydropyrrolo[3,4-c]pyrazole-5 (1H)-carboxamide] |  |  |  |  |  |  |  |  | ≥ 50% |  |
| CC1(C)c2[nH]nc(NC(=O)C3([Si](C)(C)C)CCC3)c2CN1C(=O)Nc1ccccc1F [IV-3, N-(2-Fluorophenyl)-6,6-dimethyl-3-[1-(trimethylsilyl)cyclobutanecarboxamido]-4,6-dihydropyrrolo[3,4-c]pyrazole-5(1H)-carboxamide] | < 300 nM | < 300 nM | 300 to 1000 nM | < 300 nM | < 300 nM | < 300 nM | < 300 nM | < 300 nM |  | < 300 nM |
| Cc1cccc(Br)c1NC(=O)N1Cc2c(NC(=O)C3([Si](C)(C)C)CCC3)n[nH]c2C1(C)C [IV-299, N-(2-Bromo-6-methylphenyl)-6,6-dimethyl-3-[1-(trimethylsilyl)cyclobutanecarboxamido]-4,6-dihydropyrrolo[3,4-c]pyrazole-5 (1H)-carboxamide] | < 300 nM | < 300 nM | 300 to 1000 nM | < 300 nM | < 300 nM | < 300 nM | < 300 nM | < 300 nM | ≥ 50% | < 300 nM |
